Data taken from ChEMBL document CHEMBL3822442, “Synthesis and Pharmacological Characterization of Novel Glucagon-like Peptide-2 (GLP-2) Analogues with Low Systemic Clearance” (J Med Chem, 2016).

Key:
[1] = target: T1, Glucagon-like peptide 2 receptor (Homo sapiens, UniProt O95838); assay: Agonist activity at human GLP2R expressed in HEK293 cells after 5 hrs by luciferase reporter gene assay; type: cell-based
T1 sequence (O95838 whole entry): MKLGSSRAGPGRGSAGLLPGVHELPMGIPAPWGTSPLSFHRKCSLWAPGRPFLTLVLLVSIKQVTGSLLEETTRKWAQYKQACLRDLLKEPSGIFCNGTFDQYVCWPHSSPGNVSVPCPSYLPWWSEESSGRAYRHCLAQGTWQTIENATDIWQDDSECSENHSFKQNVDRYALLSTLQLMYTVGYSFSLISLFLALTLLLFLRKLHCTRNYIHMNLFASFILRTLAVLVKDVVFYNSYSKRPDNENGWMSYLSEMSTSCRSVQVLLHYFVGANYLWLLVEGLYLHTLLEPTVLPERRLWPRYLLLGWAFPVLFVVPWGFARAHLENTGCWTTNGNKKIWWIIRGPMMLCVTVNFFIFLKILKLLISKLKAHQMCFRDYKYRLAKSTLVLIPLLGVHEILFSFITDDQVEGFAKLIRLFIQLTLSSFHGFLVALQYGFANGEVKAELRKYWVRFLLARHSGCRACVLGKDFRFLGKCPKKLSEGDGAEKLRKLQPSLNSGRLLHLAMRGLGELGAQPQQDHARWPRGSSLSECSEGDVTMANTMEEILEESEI

[2] = target: Glucagon-like peptide 1 receptor (Homo sapiens, UniProt P43220); assay: Agonist activity at human GLP1R expressed in HEK293 cells after 5 hrs by luciferase reporter gene assay; type: cell-based
Glucagon-like peptide 1 receptor, sequence (P43220 whole entry): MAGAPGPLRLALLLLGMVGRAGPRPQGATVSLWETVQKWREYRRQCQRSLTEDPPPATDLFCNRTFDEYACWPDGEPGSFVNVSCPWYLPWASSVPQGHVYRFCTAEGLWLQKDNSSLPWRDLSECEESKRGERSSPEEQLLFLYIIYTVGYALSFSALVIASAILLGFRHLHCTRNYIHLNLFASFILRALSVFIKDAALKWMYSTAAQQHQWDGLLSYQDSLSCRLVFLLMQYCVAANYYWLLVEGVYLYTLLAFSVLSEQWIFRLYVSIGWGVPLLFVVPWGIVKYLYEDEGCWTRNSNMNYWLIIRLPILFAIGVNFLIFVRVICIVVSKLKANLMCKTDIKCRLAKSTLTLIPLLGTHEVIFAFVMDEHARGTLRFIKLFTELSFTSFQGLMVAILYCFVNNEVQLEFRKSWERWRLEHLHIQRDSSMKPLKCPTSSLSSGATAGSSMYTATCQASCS

Row | Compound | EC50 [1] [nM] | EC50 [2] [nM]
1 | CCCC[C@H](NC(=O)[C@H](CCC(=O)O)NC(=O)[C@H](CC(=O)O)NC(=O)[C@H](CO)NC(=O)[C@H](Cc1ccccc1)NC(=O)[C@H](CO)NC(=O)CNC(=O)[C@H](CC(=O)O)NC(=O)CNC(=O)[C@@H](N)Cc1cnc[nH]1)C(=O)N[C@H](CC(C)C)C(=O)N[C@H](C(=O)N[C@H](C(=O)N[C@@H](CC(C)C)C(=O)N[C@@H](CC(=O)O)C(=O)N[C@@H](CC(N)=O)C(=O)N[C@@H](CC(C)C)C(=O)N[C@@H](C)C(=O)N[C@@H](C)C(=O)N[C@@H](CCCNC(=N)N)C(=O)N[C@@H](CC(=O)O)C(=O)N[C@@H](Cc1ccccc1)C(=O)N[C@H](C(=O)N[C@@H](CC(N)=O)C(=O)N[C@@H](Cc1c[nH]c2ccccc12)C(=O)N[C@@H](CC(C)C)C(=O)N[C@H](C(=O)N[C@@H](CCC(N)=O)C(=O)N[C@H](C(=O)N[C@@H](CCCCN)C(N)=O)[C@@H](C)O)[C@@H](C)CC)[C@@H](C)CC)[C@@H](C)CC)[C@@H](C)O | 0.31 | > 1000
2 | CCCC[C@H](NC(=O)[C@H](CCC(=O)O)NC(=O)[C@H](CC(=O)O)NC(=O)[C@H](CO)NC(=O)[C@H](Cc1ccccc1)NC(=O)[C@H](CO)NC(=O)CNC(=O)[C@H](CC(=O)O)NC(=O)CNC(=O)[C@@H](N)Cc1cnc[nH]1)C(=O)N[C@@H](CC(N)=O)C(=O)N[C@H](C(=O)N[C@H](C(=O)N[C@@H](CC(C)C)C(=O)N[C@@H](CC(=O)O)C(=O)N[C@@H](CC1CCCCC1)C(=O)N[C@@H](CC(C)C)C(=O)N[C@@H](C)C(=O)N[C@@H](C)C(=O)N[C@@H](CCCNC(=N)N)C(=O)N[C@@H](CC(=O)O)C(=O)N[C@@H](Cc1ccccc1)C(=O)N[C@H](C(=O)N[C@@H](CC(N)=O)C(=O)N[C@@H](Cc1c[nH]c2ccccc12)C(=O)N[C@@H](CC(C)C)C(=O)N[C@H](C(=O)N[C@@H](CCC(N)=O)C(=O)N[C@H](C(=O)N[C@@H](CCCCN)C(N)=O)[C@@H](C)O)[C@@H](C)CC)[C@@H](C)CC)[C@@H](C)CC)[C@@H](C)O | 0.1 | > 1000
3 | CCCC[C@H](NC(=O)[C@H](CCC(=O)O)NC(=O)[C@H](CC(=O)O)NC(=O)[C@H](CO)NC(=O)[C@H](Cc1ccccc1)NC(=O)[C@H](CO)NC(=O)CNC(=O)[C@H](CC(=O)O)NC(=O)CNC(=O)[C@@H](N)Cc1cnc[nH]1)C(=O)N[C@H](Cc1ccccc1)C(=O)N[C@H](C(=O)N[C@H](C(=O)N[C@@H](CC(C)C)C(=O)N[C@@H](CC(=O)O)C(=O)N[C@@H](CC(C)C)C(=O)N[C@@H](CC(C)C)C(=O)N[C@@H](C)C(=O)N[C@@H](C)C(=O)N[C@@H](CCCNC(=N)N)C(=O)N[C@@H](CC(=O)O)C(=O)N[C@@H](Cc1ccccc1)C(=O)N[C@H](C(=O)N[C@@H](CC(N)=O)C(=O)N[C@@H](Cc1c[nH]c2ccccc12)C(=O)N[C@@H](CC(C)C)C(=O)N[C@H](C(=O)N[C@@H](CCC(N)=O)C(=O)N[C@H](C(=O)N[C@@H](CCCCN)C(=O)N[C@H](C(=O)N[C@H](C(=O)N[C@@H](CC(=O)O)C(=O)NCC)[C@@H](C)O)[C@@H](C)CC)[C@@H](C)O)[C@@H](C)CC)[C@@H](C)CC)[C@@H](C)CC)[C@@H](C)O | 0.05 | > 1000
4 | CCCC[C@H](NC(=O)[C@H](CCC(=O)O)NC(=O)[C@H](CC(=O)O)NC(=O)[C@H](CO)NC(=O)[C@H](Cc1ccccc1)NC(=O)[C@H](CO)NC(=O)CNC(=O)[C@H](CC(=O)O)NC(=O)CNC(=O)[C@@H](N)Cc1c[nH]cn1)C(=O)N[C@@H](CC(N)=O)C(=O)N[C@H](C(=O)N[C@H](C(=O)N[C@@H](CC(C)C)C(=O)N[C@@H](CC(=O)O)C(=O)N[C@@H](Cc1ccc2ccccc2c1)C(=O)N[C@@H](CC(C)C)C(=O)N[C@@H](C)C(=O)N[C@@H](C)C(=O)N[C@@H](CCCNC(=N)N)C(=O)N[C@@H](CC(=O)O)C(=O)N[C@@H](Cc1ccccc1)C(=O)N[C@H](C(=O)N[C@@H](CC(N)=O)C(=O)N[C@@H](Cc1c[nH]c2ccccc12)C(=O)N[C@@H](CC(C)C)C(=O)N[C@H](C(=O)N[C@@H](CCC(N)=O)C(=O)N[C@H](C(=O)N[C@@H](CCCCN)C(N)=O)[C@@H](C)O)[C@@H](C)CC)[C@@H](C)CC)[C@@H](C)CC)[C@@H](C)O | 0.13 | > 1000
5 | CCCC[C@H](NC(=O)[C@H](CCC(=O)O)NC(=O)[C@H](CC(=O)O)NC(=O)[C@H](CO)NC(=O)[C@H](Cc1ccccc1)NC(=O)[C@H](CO)NC(=O)CNC(=O)[C@H](CC(=O)O)NC(=O)CNC(=O)[C@@H](N)Cc1cnc[nH]1)C(=O)N[C@H](Cc1ccc(Cl)cc1)C(=O)N[C@H](C(=O)N[C@H](C(=O)N[C@@H](CC(C)C)C(=O)N[C@@H](CC(=O)O)C(=O)N[C@@H](CC(N)=O)C(=O)N[C@@H](CC(C)C)C(=O)N[C@@H](C)C(=O)N[C@@H](C)C(=O)N[C@@H](CCCNC(=N)N)C(=O)N[C@@H](CC(=O)O)C(=O)N[C@@H](Cc1ccccc1)C(=O)N[C@H](C(=O)N[C@@H](CC(N)=O)C(=O)N[C@@H](Cc1c[nH]c2ccccc12)C(=O)N[C@@H](CC(C)C)C(=O)N[C@H](C(=O)N[C@@H](CCC(N)=O)C(=O)N[C@H](C(=O)N[C@@H](CCCCN)C(N)=O)[C@@H](C)O)[C@@H](C)CC)[C@@H](C)CC)[C@@H](C)CC)[C@@H](C)O | 0.09 | 60
6 | CCCC[C@H](NC(=O)[C@H](CCC(=O)O)NC(=O)[C@H](CC(=O)O)NC(=O)[C@H](CO)NC(=O)[C@H](Cc1ccccc1)NC(=O)[C@H](CO)NC(=O)CNC(=O)[C@H](CC(=O)O)NC(=O)CNC(=O)[C@@H](N)Cc1cnc[nH]1)C(=O)N[C@H](Cc1cccs1)C(=O)N[C@H](C(=O)N[C@H](C(=O)N[C@@H](CC(C)C)C(=O)N[C@@H](CC(=O)O)C(=O)N[C@@H](Cc1ccccc1)C(=O)N[C@@H](CC(C)C)C(=O)N[C@@H](C)C(=O)N[C@@H](C)C(=O)N[C@@H](CCCNC(=N)N)C(=O)N[C@@H](CC(=O)O)C(=O)N[C@@H](Cc1ccccc1)C(=O)N[C@H](C(=O)N[C@@H](CC(N)=O)C(=O)N[C@@H](Cc1c[nH]c2ccccc12)C(=O)N[C@@H](CC(C)C)C(=O)N[C@H](C(=O)N[C@@H](CCC(N)=O)C(=O)N[C@H](C(=O)N[C@@H](CCCCN)C(N)=O)[C@@H](C)O)[C@@H](C)CC)[C@@H](C)CC)[C@@H](C)CC)[C@@H](C)O | 0.08 | > 1000
7 | CCCC[C@H](NC(=O)[C@H](CCC(=O)O)NC(=O)[C@H](CC(=O)O)NC(=O)[C@H](CO)NC(=O)[C@H](Cc1ccccc1)NC(=O)[C@H](CO)NC(=O)CNC(=O)[C@H](CC(=O)O)NC(=O)CNC(=O)[C@@H](N)Cc1cnc[nH]1)C(=O)N[C@H](Cc1ccccc1)C(=O)N[C@H](C(=O)N[C@H](C(=O)N[C@@H](CC(C)C)C(=O)N[C@@H](CC(=O)O)C(=O)N[C@@H](CC(C)C)C(=O)N[C@@H](CC(C)C)C(=O)N[C@@H](C)C(=O)N[C@@H](C)C(=O)N[C@@H](CCCNC(=N)N)C(=O)N[C@@H](CC(=O)O)C(=O)N[C@@H](Cc1ccccc1)C(=O)N[C@H](C(=O)N[C@@H](CC(N)=O)C(=O)N[C@@H](Cc1c[nH]c2ccccc12)C(=O)N[C@@H](CC(C)C)C(=O)N[C@H](C(=O)N[C@@H](CCC(N)=O)C(=O)N[C@H](C(=O)N[C@@H](CCCCN)C(=O)N[C@H](C(=O)N[C@H](C(=O)N[C@@H](CC(=O)O)C(=O)NCCOCCOCCOCCOCCC(N)=O)[C@@H](C)O)[C@@H](C)CC)[C@@H](C)O)[C@@H](C)CC)[C@@H](C)CC)[C@@H](C)CC)[C@@H](C)O | 0.03 | > 1000
8 | CCCC[C@H](NC(=O)[C@H](CCC(=O)O)NC(=O)[C@H](CC(=O)O)NC(=O)[C@H](CO)NC(=O)[C@H](Cc1ccccc1)NC(=O)[C@H](CO)NC(=O)CNC(=O)[C@H](CC(=O)O)NC(=O)CNC(=O)[C@@H](N)Cc1cnc[nH]1)C(=O)N[C@@H](CC(N)=O)C(=O)N[C@H](C(=O)N[C@H](C(=O)N[C@@H](CC(C)C)C(=O)N[C@@H](CC(=O)O)C(=O)N[C@@H](Cc1cccc2ccccc12)C(=O)N[C@@H](CC(C)C)C(=O)N[C@@H](C)C(=O)N[C@@H](C)C(=O)N[C@@H](CCCNC(=N)N)C(=O)N[C@@H](CC(=O)O)C(=O)N[C@@H](Cc1ccccc1)C(=O)N[C@H](C(=O)N[C@@H](CC(N)=O)C(=O)N[C@@H](Cc1c[nH]c2ccccc12)C(=O)N[C@@H](CC(C)C)C(=O)N[C@H](C(=O)N[C@@H](CCC(N)=O)C(=O)N[C@H](C(=O)N[C@@H](CCCCN)C(N)=O)[C@@H](C)O)[C@@H](C)CC)[C@@H](C)CC)[C@@H](C)CC)[C@@H](C)O | 0.19 | > 1000
9 | CCCC[C@H](NC(=O)[C@H](CCC(=O)O)NC(=O)[C@H](CC(=O)O)NC(=O)[C@H](CO)NC(=O)[C@H](Cc1ccccc1)NC(=O)[C@H](CO)NC(=O)CNC(=O)[C@H](CC(=O)O)NC(=O)CNC(=O)[C@@H](N)Cc1c[nH]cn1)C(=O)N[C@@H](CC(N)=O)C(=O)N[C@H](C(=O)N[C@H](C(=O)N[C@@H](CC(C)C)C(=O)N[C@@H](CC(=O)O)C(=O)N[C@@H](Cc1ccc(N)cc1)C(=O)N[C@@H](CC(C)C)C(=O)N[C@@H](C)C(=O)N[C@@H](C)C(=O)N[C@@H](CCCNC(=N)N)C(=O)N[C@@H](CC(=O)O)C(=O)N[C@@H](Cc1ccccc1)C(=O)N[C@H](C(=O)N[C@@H](CC(N)=O)C(=O)N[C@@H](Cc1c[nH]c2ccccc12)C(=O)N[C@@H](CC(C)C)C(=O)N[C@H](C(=O)N[C@@H](CCC(N)=O)C(=O)N[C@H](C(=O)N[C@@H](CCCCN)C(N)=O)[C@@H](C)O)[C@@H](C)CC)[C@@H](C)CC)[C@@H](C)CC)[C@@H](C)O | 0.13 | > 1000
